{"source": "patent US9464007B2", "about": "“Antifungal wallboards and building materials and methods for the production thereof” (priority 2004, dated 2016)", "assay_type_in_all_cases": "cell-based", "key": {"[1]": {"tested_on": "Cladosporium cladosporioides", "experiment": "Fungal growth on agar medium containing fungicide, petri dish, visual assessment", "conditions": "for EC50: 624 h, read-out: Concentration required for 50% Activity; for EC50 / Concentration required for 80% Activity: after 26 days at 20° C.", "experimental": "(§1) A fungal growth medium was made comprising yeast extract (4 g) agar (8 g), magnesium sulphate (0.2 g), sodium nitrate (2.4 g), potassium chloride (0.2 g), potassium dihydrogen orthophosphate (0.6 g), glycerol (8 ml), distilled water (390 ml). Fungicides as set out in Tables 1 to 4 were added at levels of 5000, 100, 10, 1, 0.1 and 0.01 mg fungicide/liter of growth medium to give six different growth medium compositions for each fungicide. These growth media containing the fungicide were each put into petri dishes.\n(§2) Cladosporium cladosporoides, Oligoporus placenta, Stachybotrys chartarum and Memnionella echinata were separately propagated on Luria agar to suppress sporulation and mycelial plugs were transferred upside down onto the petri dishes containing the growth medium.\n(§3) A visual assessment was made of the surface of the petri dishes. The result recorded was the percentage of the surface that remained free of fungus. This was recorded as percentage activity\n(§4) For each fungicide, a graph was drawn of percentage activity against concentration of fungicide in the growth medium. From this graph, the concentrations of fungicide required to achieve 50%, 80% and 95% activity was estimated. These figures are given in the results tables.\n3. Cladosporium cladosporioides; Results after 26 days at 20° C."}, "[2]": {"tested_on": "Oligoporus placenta", "experiment": "Fungal growth on agar medium containing fungicide, petri dish, visual assessment", "experimental": "as §1, §2, §3, §4\n4. Oligoporus placenta; Results."}, "[3]": {"tested_on": "Memnionella echinata", "experiment": "Fungal growth on agar medium containing fungicide, petri dish, visual assessment", "conditions": "after 23 days at 25° C.; for EC50: 552 h, read-out: Concentration required for 50% Activity", "experimental": "as §1, §2, §3, §4\n2. Memnionella echinata; Results after 23 days at 25° C."}, "[4]": {"tested_on": "Penicillium citrinum", "experiment": "Synergy testing of 2-way mixtures, 24 well plates", "conditions": "P. citrinum, PPZ + DFZ test", "experimental": "(§5) For synergism testing of the 2-way mixtures 100 ul of each fungicide were filled into the 24 well plates (8 different rates) and 800 ul of 0.3% PDA media containing the spore suspension was added (see above). Different ratios of the 2 fungicide rates were tested at the same time.\n(§6) Alternaria tenuissima, Penicillium citrinum, Stachybotrys chartarum, Aspergillus niger and Aureobasidium pullulans were separately cultivated on PDA media to […] sporulation. Spore suspensions were produced for each fungi.\n(§7) For the mixtures of different fungicides the synergism was calculated based on the Colby equation, which is described below: […]\n(§8) The fungicidal action to be expected, We, for a given combination of two fungicides can be calculated as follows (see COLBY, S. R. “Calculating synergistic and antagonistic response of herbicide combinations”. Weeds 15, pages 20-22; 1967): We=X+[Y×(100−X)/100] wherein:\n(§9) If the activity actually observed is greater than the expected value We, there is a synergistic effect.\n(§10) All rates below are expressed as mg ai/l (i.e. ppm)."}, "[5]": {"tested_on": "Aureobasidium pullulans", "experiment": "Synergy testing of 2-way mixtures, 24 well plates", "conditions": "A. pullulans", "experimental": "as §5, §6, §7, §8, §9, §10"}, "[6]": {"tested_on": "Aspergillus niger", "experiment": "Synergy testing of 2-way mixtures, 24 well plates", "conditions": "A. niger, rate (DFZ) 0.8 mg ai/l", "experimental": "as §5, §6, §7, §8, §9, §10"}, "[7]": {"tested_on": "Stachybotrys chartarum", "experiment": "Fungal growth on agar medium containing fungicide, petri dish, visual assessment", "conditions": "for EC50: 528 h, read-out: Concentration required for 50% Activity; for EC50 / Concentration required for 80% Activity: after 22 days at 25° C.", "experimental": "as §1, §2, §3, §4\n1. Stachybotrys chartarum; Results after 22 days at 25° C."}}, "note": "Where “and” joins values, the source holds several entries; their conditions need not be identical. Equal values may be shown once.", "data": [{"smiles": "CC1COC(Cn2cncn2)(c2ccc(Oc3ccc(Cl)cc3)cc2Cl)O1", "note": "(stereo not drawn) [Difenoconazole]", "values": [{"measurement": "Concentration required for 95% Activity", "setting": "[1]", "result": 0.79, "unit": "mg/L"}, {"measurement": "EC50", "setting": "[1]", "result": 0.04, "unit": "µg/mL"}, {"measurement": "Concentration required for 80% Activity", "setting": "[1]", "result": 0.28, "unit": "mg/L"}, {"measurement": "Concentration required for 95% Activity", "setting": "[2]", "result": "<0.1", "unit": "mg/L"}, {"measurement": "EC50", "setting": "[3]", "result": 5.4, "unit": "µg/mL"}, {"measurement": "Concentration required for 80% Activity", "setting": "[3]", "result": 43, "unit": "mg/L"}, {"measurement": "inh % (DFZ alone)", "setting": "[4]; rate (DFZ) 0.05 mg ai/l", "result": 0, "unit": "%"}, {"measurement": "inh % (DFZ alone)", "setting": "[4]; rate (DFZ) 0.2 mg ai/l", "result": 10, "unit": "%"}, {"measurement": "inh % (DFZ alone)", "setting": "[4]; rate (DFZ) 0.8 mg ai/l", "result": 30, "unit": "%"}, {"measurement": "inh % (DFZ alone)", "setting": "[5]; rate (DFZ) 0.05 mg ai/l, PPZ + DFZ test", "result": 10, "unit": "%"}, {"measurement": "inh % (DFZ alone)", "setting": "[5]; rate (DFZ) 0.2 mg ai/l, DFZ + FDL test", "result": 70, "unit": "%"}, {"measurement": "inh % (DFZ alone)", "setting": "[5]; rate (DFZ) 0.2 mg ai/l, DFZ + TBZ test, listed as DFZ", "result": "70% and 90%"}, {"measurement": "inh % (DFZ alone)", "setting": "[5]; rate (DFZ) 0.2 mg ai/l, PPZ + DFZ test", "result": 70, "unit": "%"}, {"measurement": "inh % (DFZ alone)", "setting": "[5]; rate (DFZ) 0.8 mg ai/l, DFZ + CDL test", "result": 90, "unit": "%"}, {"measurement": "inh % (DFZ alone)", "setting": "[5]; rate (DFZ) 0.8 mg ai/l, DFZ + TBZ test", "result": 90, "unit": "%"}, {"measurement": "inh % (DFZ alone)", "setting": "[5]; rate (DFZ) 1.6 mg ai/l, DFZ + CDL test", "result": 90, "unit": "%"}, {"measurement": "inh % (DFZ alone)", "setting": "[5]; rate (DFZ) 1.6 mg ai/l, DFZ + TBZ test", "result": 90, "unit": "%"}, {"measurement": "inh % (DFZ alone)", "setting": "[5]; rate (DFZ) 3.1 mg ai/l, DFZ + CDL test", "result": 70, "unit": "%"}, {"measurement": "inh % (DFZ alone)", "setting": "[5]; rate (DFZ) 3.1 mg ai/l, DFZ + FDL test", "result": 70, "unit": "%"}, {"measurement": "inh % (DFZ alone)", "setting": "[5]; rate (DFZ) 3.1 mg ai/l, DFZ + TBZ test", "result": 70, "unit": "%"}, {"measurement": "inh % (DFZ alone)", "setting": "[5]; rate (DFZ) 3.1 mg ai/l, PPZ + DFZ test", "result": 50, "unit": "%"}, {"measurement": "inh % (DFZ alone)", "setting": "[6]; DFZ + TBZ test", "result": 10, "unit": "%"}, {"measurement": "inh % (DFZ alone)", "setting": "[6]; PPZ + DFZ test", "result": 30, "unit": "%"}, {"measurement": "Concentration required for 95% Activity", "setting": "[7]", "result": 23, "unit": "mg/L"}, {"measurement": "EC50", "setting": "[7]", "result": 0.68, "unit": "µg/mL"}, {"measurement": "Concentration required for 80% Activity", "setting": "[7]", "result": 3.5, "unit": "mg/L"}]}, {"smiles": "CCCC1COC(Cn2cncn2)(c2ccc(Cl)cc2Cl)O1", "note": "(stereo not drawn) [Propiconazole]", "values": [{"measurement": "Concentration required for 95% Activity", "setting": "[1]", "result": 4.5, "unit": "mg/L"}, {"measurement": "EC50", "setting": "[1]", "result": 0.19, "unit": "µg/mL"}, {"measurement": "Concentration required for 80% Activity", "setting": "[1]", "result": 1.7, "unit": "mg/L"}, {"measurement": "Concentration required for 95% Activity", "setting": "[2]", "result": 0.4, "unit": "mg/L"}, {"measurement": "EC50", "setting": "[3]", "result": 88, "unit": "µg/mL"}, {"measurement": "Concentration required for 80% Activity", "setting": "[3]", "result": ">100", "unit": "mg/L"}, {"measurement": "inh % (PPZ alone)", "setting": "[4]; rate (PPZ) 0.8 mg ai/l", "result": 70, "unit": "%"}, {"measurement": "Concentration required for 95% Activity", "setting": "[7]", "result": 360, "unit": "mg/L"}, {"measurement": "EC50", "setting": "[7]", "result": 15, "unit": "µg/mL"}, {"measurement": "Concentration required for 80% Activity", "setting": "[7]", "result": 49, "unit": "mg/L"}]}]}
